The target in assay [1] is T1, NAD-dependent protein deacetylase sirtuin-1 (Homo sapiens, UniProt Q96EB6).
T1 sequence (Q96EB6 whole entry): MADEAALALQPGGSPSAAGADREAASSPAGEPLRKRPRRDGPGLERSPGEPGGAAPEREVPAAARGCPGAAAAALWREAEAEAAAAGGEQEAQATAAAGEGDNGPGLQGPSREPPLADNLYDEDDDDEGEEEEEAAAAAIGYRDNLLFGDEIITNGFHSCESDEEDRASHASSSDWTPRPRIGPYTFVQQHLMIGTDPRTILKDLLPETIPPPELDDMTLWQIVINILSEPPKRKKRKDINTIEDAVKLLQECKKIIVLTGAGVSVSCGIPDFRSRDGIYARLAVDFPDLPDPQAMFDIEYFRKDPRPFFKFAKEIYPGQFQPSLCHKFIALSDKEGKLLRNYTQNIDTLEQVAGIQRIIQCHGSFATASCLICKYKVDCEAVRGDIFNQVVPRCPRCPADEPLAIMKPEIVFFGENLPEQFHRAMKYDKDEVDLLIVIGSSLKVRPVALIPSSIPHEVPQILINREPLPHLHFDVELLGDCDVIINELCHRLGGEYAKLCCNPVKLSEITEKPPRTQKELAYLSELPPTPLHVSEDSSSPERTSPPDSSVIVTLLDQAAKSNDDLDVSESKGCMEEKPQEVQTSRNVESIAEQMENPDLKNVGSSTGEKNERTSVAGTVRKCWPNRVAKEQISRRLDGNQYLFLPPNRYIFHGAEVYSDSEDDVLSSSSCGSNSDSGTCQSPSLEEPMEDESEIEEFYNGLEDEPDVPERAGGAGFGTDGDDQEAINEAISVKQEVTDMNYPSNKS
Put plainly: Inhibition of Sirtuin-1 (unknown origin) incubated for 30 mins by luminogenic SIRT-Glo assay.

Assay [2] concerns the target Carbonic anhydrase (Homo sapiens) (UniProt P00918+P43166+P00915+P07451+P23280+O43570+Q9ULX7+Q16790+P22748+Q8N1Q1+Q9Y2D0+P35218). Put plainly: Binding affinity to carbonic anhydrase (unknown origin) assessed as change in melting temperature incubated for 15 mins by Sypro orange staining based thermal scanning analysis. Format: protein assay. Conditions: dose 0.01-1000 µM.

Assay [3] deals with T2, NAD-dependent protein deacetylase sirtuin-1 (Homo sapiens) (UniProt Q96EB6).
T2 sequence (whole entry): T1 sequence (Q96EB6 whole entry)
The conditions noted are these: dose 20.0 µM.
Description: Binding affinity to human recombinant truncated Sirtuin-1 expressed in Escherichia coli assessed as change in melting temperature at 20 uM by SYPRO orange dye based thermal shift assay

Molecules are shown by their SMILES. Calls of active or inactive are those of the source. The rule behind the calls is not given here.

As for `COc1ccc(N2CCN(c3nc(-c4ccccc4)nc4ccccc34)CC2)cc1`, half-maximal inhibition in assay [1] (IC50) required 40 µM. For the same compound, in assay [2], the outcome was inactive. Besides, the ΔTm in assay [3] was 1.6 °C.
Turning to `O=S(=O)(NCCc1c[nH]c2ccccc12)c1cc(Cl)cc(Cl)c1`, the ΔTm in assay [3] was 1 °C.
The same measure, in the same setting: as for `O=C(Nc1ccccc1)Nc1ccc(NC(=O)c2ccc(Br)cc2)cc1`, the figure is 2.1 °C; as for `NC(=O)c1ccc(N2CCN(C(c3ccccc3)c3ccccc3)CC2)c([N+](=O)[O-])c1`, 1 °C.
The same measure, in the same setting: as for `O=C(CCc1ccccc1O)NCCc1c[nH]c2ccccc12`, the figure is 12.9 °C; as for `O=C(CCc1c[nH]c2ccccc12)NNC(=O)CCc1c[nH]c2ccccc12`, 2.8 °C.
As for `O=C(NCCc1c[nH]c2ccccc12)c1ccccc1O`, the IC50 in assay [1] came to 3.4 µM. Besides, the Activity entry in assay [2] is “Dose-Dependent Effect”. Further, in assay [3], the ΔTm turned out to be 1.8 °C.

Source of the values: ChEMBL document CHEMBL5360629, “AI-Powered Virtual Screening of Large Compound Libraries Leads to the Discovery of Novel Inhibitors of Sirtuin-1” (J Med Chem, 2023).
